Source: article PMC7539012, “Hyperphosphorylated tau aggregation and cytotoxicity modulators screen identified prescription drugs linked to Alzheimer's disease and cognitive functions” (Scientific Reports, 2020)
Counter-ions that a name gives are not always drawn. Like-named read-outs stand apart in the source and are kept apart here.

System: T1, 1N4R p-tau
T1 construct: made in house; host or cells: E. coli (PIMAX system)
Test: p-tau aggregation modulator screen of 1280-compound library (ThS fluorescence net change over 16 h);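 as to ThS net change: 30 µM compound with 6 µM p-tau over 16 h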
Format: biochemical
Set-up: key to PTAI>2SD: *: PTAI>2SD

[1] = library screen, ThS fluorescence net change over 16 h with p-tau
[2] = 1280-compound library screen, […]
[3] = 1280-compound library screen, ThS fluorescence net change over 16 h
[4] = p-tau aggregation modulator screen of 1280-compound library, ThS fluorescence net change
[5] = p-tau aggregation modulator screen of the compound library, ThS fluorescence net change
[6] = p-tau aggregation modulator screen of 1280-compound library, […]

Clc1ccc(COC(Cn2ccnc2)c2ccc(Cl)cc2Cl)c(Cl)c1 (stereo not drawn) [Miconazole]
ThS net change [1]: 316

COc1ccc(OC)c(C(O)CNC(=O)CN)c1 (stereo not drawn) [Midodrine hydrochloride]
ThS net change [2]: 385

CC#C[C@]1(O)CC[C@H]2[C@@H]3CCC4=CC(=O)CCC4=C3[C@@H](c3ccc(N(C)C)cc3)C[C@@]21C [Mifepristone]
ThS net change [3]: 382

OCCN1C[C@H](O)[C@@H](O)[C@H](O)[C@H]1CO [Miglitol]
ThS net change [4]: 372

CCN(CC)C(=O)[C@]1(c2ccccc2)C[C@@H]1CN.Cl [Milnacipran hydrochloride]
ThS net change: 415

Cc1[nH]c(=O)c(C#N)cc1-c1ccncc1 [Milrinone]
ThS net change [5]: 423

Cc1cc(-c2ccccc2)nnc1NCCN1CCOCC1 [Minaprine dihydrochloride]
ThS net change [1]: 294

CN(C)c1ccc(O)c2c1C[C@H]1C[C@H]3[C@H](N(C)C)C(O)=C(C(N)=O)C(=O)[C@@]3(O)C(O)=C1C2=O [Minocycline hydrochloride]
PTAI>2SD (flag: p-tau aggregation inhibitor, ThS net change more than 2 SD from mean): * | ThS net change [1]: 121

CN1CCN2c3ncccc3Cc3ccccc3C2C1 (stereo not drawn) [Mirtazapine]
ThS net change [5]: 534

Clc1ccc(C(c2ccccc2Cl)C(Cl)Cl)cc1 (stereo not drawn) [Mitotane]
ThS net change [5]: 449

O=C1c2c(O)ccc(O)c2C(=O)c2c(NCCNCCO)ccc(NCCNCCO)c21 [Mitoxantrone dihydrochloride]
ThS net change: 328

CN(c1nccc(=O)[nH]1)C1CCN(c2nc3ccccc3n2Cc2ccc(F)cc2)CC1 [Mizolastine]
ThS net change [3]: 390

O=C(NCCN1CCOCC1)c1ccc(Cl)cc1 [Moclobemide]
ThS net change [3]: 393

NC(=O)C[S+]([O-])C(c1ccccc1)c1ccccc1 (stereo not drawn) [Modafinil]
ThS net change: 413

CCc1c(C)[nH]c2c1C(=O)C(CN1CCOCC1)CC2 (stereo not drawn) [Molindone hydrochloride]
ThS net change [5]: 458

C[C@@H]1C[C@H]2[C@@H]3CCC4=CC(=O)C=C[C@]4(C)[C@@]3(Cl)[C@@H](O)C[C@]2(C)[C@@]1(OC(=O)c1ccco1)C(=O)CCl [Mometasone furoate]
ThS net change [5]: 484

CC[C@@]1([C@@H]2O[C@@H]([C@H]3O[C@@](O)(CO)[C@H](C)C[C@@H]3C)C[C@@H]2C)CC[C@H]([C@]2(C)CC[C@]3(C[C@H](O)[C@@H](C)[C@@H]([C@@H](C)[C@@H](OC)[C@H](C)C(=O)[O-])O3)O2)O1.[Na+] [Monensin sodium salt]
ThS net change [6]: 342

Oc1ccc(OCc2ccccc2)cc1 [Monobenzone]
ThS net change [3]: 382

CC(C)(O)c1ccccc1CC[C@@H](SCC1(CC(=O)O)CC1)c1cccc(/C=C/c2ccc3ccc(Cl)cc3n2)c1 [Montelukast]
ThS net change [5]: 592

Cc1ccsc1/C=C/C1=NCCCN1C [Morantel tartrate]
ThS net change [2]: 398

CCOC(=O)Nc1ccc2c(c1)N(C(=O)CCN1CCOCC1)c1ccccc1S2 [Moricizine hydrochloride]
ThS net change [5]: 473

Cl.N=C(N)NC(=N)N1CCOCC1 [Moroxidine hydrochloride]
ThS net change [3]: 379

CO[C@@]1(NC(=O)C(C(=O)O)c2ccc(O)cc2)C(=O)N2C(C(=O)O)=C(CSc3nnnn3C)CO[C@@H]21 (stereo partly drawn) [Moxalactam disodium salt]
ThS net change [5]: 419

COc1c(N2C[C@@H]3CCCN[C@@H]3C2)c(F)cc2c(=O)c(C(=O)O)cn(C3CC3)c12 [Moxifloxacin]
ThS net change [3]: 413

CC(=O)Oc1cc(C(C)C)c(OCCN(C)C)cc1C.Cl [Moxisylyte hydrochoride]
ThS net change [4]: 358

COc1nc(C)nc(Cl)c1N=C1NCCN1 [Moxonidine]
ThS net change [5]: 433

CNc1ncnc2c1ncn2[C@@H]1O[C@H](CO)[C@@H](O)[C@H]1O [N6-methyladenosine]
ThS net change [5]: 416

CC(=O)N[C@@H](CC(C)C)C(=O)O [N-Acetyl-L-leucine]
ThS net change [5]: 417

COc1ccc2cc(CCC(C)=O)ccc2c1 [Nabumetone]
ThS net change [4]: 357

NC(=O)c1ccc[n+]([C@@H]2O[C@H](COP(=O)([O-])OP(=O)(O)OC[C@H]3O[C@@H](n4cnc5c(N)ncnc54)[C@H](O)[C@@H]3O)[C@@H](O)[C@H]2O)c1 [Nadide]
ThS net change [4]: 366

CC1CCc2c(N3CCC(O)CC3)c(F)cc3c(=O)c(C(=O)O)cn1c23 (stereo not drawn) [Nadifloxacin]
ThS net change [3]: 399

CC(C)(C)NCC(O)COc1cccc2c1CC(O)C(O)C2 (stereo not drawn) [Nadolol]
ThS net change [3]: 411

CCOc1ccc2ccccc2c1C(=O)N[C@@H]1C(=O)N2[C@@H]1SC(C)(C)[C@@H]2C(=O)O [Nafcillin sodium salt monohydrate]
ThS net change [1]: 317

CCN(CC)CCOC(=O)C(Cc1cccc2ccccc12)CC1CCCO1 (stereo not drawn) [Nafronyl oxalate]
ThS net change [1]: 324

CN(C/C=C/c1ccccc1)Cc1cccc2ccccc12 [Naftifine hydrochloride]
ThS net change [5]: 539

COc1ccccc1N1CCN(CC(O)COc2cccc3ccccc23)CC1.Cl.Cl (stereo not drawn) [Naftopidil dihydrochloride]
ThS net change [5]: 453

Oc1ccc2c3c1O[C@H]1[C@@H](O)CC[C@@]4(O)[C@@H](C2)N(CC2CCC2)CC[C@]314 [Nalbuphine hydrochloride]
ThS net change [6]: 371

CCn1cc(C(=O)[O-])c(=O)c2ccc(C)nc21.[Na+] [Nalidixic acid sodium salt]
ThS net change [6]: 339

C=C1CC[C@@]2(O)[C@H]3Cc4ccc(O)c5c4[C@@]2(CCN3CC2CC2)[C@H]1O5 [Nalmefene hydrochloride]
ThS net change [5]: 418

C=CCN1CC[C@]23c4c5ccc(O)c4O[C@H]2C(=O)CC[C@@]3(O)[C@H]1C5 [Naloxone hydrochloride]
ThS net change [4]: 349

Cl.O.O.O=C1CC[C@@]2(O)[C@H]3Cc4ccc(O)c5c4[C@@]2(CCN3CC2CC2)[C@H]1O5 [Naltrexone hydrochloride dihydrate]
ThS net change [2]: 408

C[C@]12CC[C@H]3[C@@H](CCC4=CC(=O)CC[C@@H]43)[C@@H]1CC[C@@H]2O [Nandrolone]
ThS net change: 479

c1ccc2c(CC3=NCCN3)cccc2c1 [Naphazoline hydrochloride]
ThS net change [4]: 361

COc1ccc2cc([C@H](C)C(=O)O)ccc2c1 [Naproxen]
ThS net change [4]: 371

CC(C)[C@H]1CC[C@H](C(=O)N[C@H](Cc2ccccc2)C(=O)O)CC1 [Nateglinide]
ThS net change [5]: 413

CCc1nn(CCCN2CCN(c3cccc(Cl)c3)CC2)c(=O)n1CCOc1ccccc1 [Nefazodone HCl]
ThS net change [5]: 454

CN1CCOC(c2ccccc2)c2ccccc2C1 (stereo not drawn) [Nefopam hydrochloride]
ThS net change [1]: 324

Cc1c(O)cccc1C(=O)N[C@@H](CSc1ccccc1)[C@H](O)CN1C[C@H]2CCCC[C@H]2C[C@H]1C(=O)NC(C)(C)C [Nelfinavir mesylate]
ThS net change [5]: 563

NC[C@@H]1O[C@H](O[C@H]2[C@@H](O)[C@H](O[C@@H]3[C@@H](O)[C@H](N)C[C@H](N)[C@H]3O[C@H]3O[C@H](CN)[C@@H](O)[C@H](O)[C@H]3N)O[C@@H]2CO)[C@H](N)[C@@H](O)[C@@H]1O.O=S(=O)(O)O [Neomycin sulfate]
ThS net change [4]: 340

CN(C)C(=O)Oc1cccc([N+](C)(C)C)c1 [Neostigmine bromide]
ThS net change [2]: 409

Cc1ccnc2c1NC(=O)c1cccnc1N2C1CC1 [Nevirapine]
ThS net change [5]: 427

O=C(O)c1cccnc1 [Niacin]
ThS net change [3]: 391

O=C(CCNNC(=O)c1ccncc1)NCc1ccccc1 [Nialamide]
ThS net change [5]: 470

COC(=O)C1=C(C)NC(C)=C(C(=O)OCCN(C)Cc2ccccc2)C1c1cccc([N+](=O)[O-])c1 (stereo not drawn) [Nicardipine hydrochloride]
ThS net change [4]: 330

CO[C@]12C[C@@H](COC(=O)c3cncc(Br)c3)CN(C)[C@@H]1Cc1cn(C)c3cccc2c13 [Nicergoline]
ThS net change [1]: 260

O=C(Nc1ccc([N+](=O)[O-])cc1Cl)c1cc(Cl)ccc1O [Niclosamide]
ThS net change [1]: 199

O=C(NCCO[N+](=O)[O-])c1cccnc1 [Nicorandil]
ThS net change [4]: 376

NC(=O)c1cccnc1 [Nicotinamide]
ThS net change [3]: 406

Cn1c(NCCN(CCO)CCCc2ccc([N+](=O)[O-])cc2)cc(=O)n(C)c1=O [Nifekalant]
ThS net change [5]: 438

Cc1c(NC(=O)c2cccnc2)c(=O)n(-c2ccccc2)n1C [Nifenazone]
ThS net change [3]: 380

O=C(O)c1cccnc1Nc1cccc(C(F)(F)F)c1 [Niflumic acid]
ThS net change [4]: 340

O=C(N/N=C/c1ccc([N+](=O)[O-])o1)c1ccc(O)cc1 [Nifuroxazide]
ThS net change [3]: 402

CC1CS(=O)(=O)CCN1/N=C/c1ccc([N+](=O)[O-])o1 (stereo not drawn) [Nifurtimox]
ThS net change [5]: 588

CC1(C)NC(=O)N(c2ccc([N+](=O)[O-])c(C(F)(F)F)c2)C1=O [Nilutamide]
ThS net change [4]: 363

COC(=O)C1=C(C#N)NC(C)=C(C(=O)OC(C)C)C1c1cccc([N+](=O)[O-])c1 (stereo not drawn) [Nilvadipine]
ThS net change [1]: 266

CS(=O)(=O)Nc1ccc([N+](=O)[O-])cc1Oc1ccccc1 [Nimesulide]
ThS net change [1]: 288

COCCOC(=O)C1=C(C)NC(C)=C(C(=O)OC(C)C)C1c1cccc([N+](=O)[O-])c1 (stereo not drawn) [Nimodipine]
ThS net change [4]: 343

O=C1NCCN1c1ncc([N+](=O)[O-])s1 [Niridazole]
ThS net change [3]: 399

CNCCC(Oc1ccccc1OC)c1ccccc1 (stereo not drawn) [Nisoxetine hydrochloride]
ThS net change: 364

CC(=O)Oc1ccccc1C(=O)Nc1ncc([N+](=O)[O-])s1 [Nitazoxanide]
ThS net change [1]: 198

CCOC(=O)C1=C(C)NC(C)=C(C(=O)OC)C1c1cccc([N+](=O)[O-])c1 (stereo not drawn) [Nitrendipine]
ThS net change [4]: 344

CCN(CC)CCOC(=O)C1(c2ccc([N+](=O)[O-])cc2)CCCC1.Cl [Nitrocaramiphen hydrochloride]
ThS net change: 435

NC(=O)N/N=C/c1ccc([N+](=O)[O-])o1 [Nitrofural]
ThS net change [4]: 365

O=C1CN(/N=C/c2ccc([N+](=O)[O-])o2)C(=O)N1 [Nitrofurantoin]
ThS net change [1]: 303
